Measurements from patent US5352659A, “Endothelin analogs and uses thereof” (Takeda Chemical Industries, priority 1991, dated 1994).
Like-named read-outs stand apart in the source and are kept apart here. Bridge positions count the residues as written; N and C are the ends. Square brackets hold non-standard residues; d marks the D form. Peptide text beside a SMILES is read from it. tBuAla = CC(C)(C)C[C@H](N)C(=O)O; Cha = N[C@@H](CC1CCCCC1)C(=O)O; Nle = CCCC[C@H](N)C(=O)O

Tests used:
porcine coronary artery = experiment: Constrictor activity on porcine coronary smooth muscles; details: for Maximum constriction (% 60 mM KCl): porcine coronary artery strips, normalized to 60 mM KCl response; for Constrictor activity (specific activity): relative to ET-1 = 100
Procedure: (§1) Spiral strips 2 mm×15 mm prepared from the coronary right ramus circumflexus from which the adventitial connective tissues and the endothelial cells were removed were set to 4 ml organ baths. The tension of each strip was detected by a force displacement transducer UL-10GR (Minebea), and recorded by a polygraph (NEC Sanei). The organ baths were maintained at 37° C., and filled with a Krebs-Henseleit solution (composition: 118 mM NaCl, 4.7 mM KCl, 2.5 mM CaCl2, 1.2 mM KH2 PO4, 25.0 mM NaHCO3, 1.2 mM MgSO4, 10.0 mM glucose) gassed with 95% O2 and 5% CO2.
(§2) A tension of 1.25 to 1.5 g was applied to each of the strips, followed by equilibration for 1.5 hours. 60 mM KCl was repeatedly applied thereto at intervals of 30 minutes until the constriction response became constant. After additional equilibration for 1.5 hours, a sample for assay was given thereto. The constriction of the strips was normalized by the constriction response of the individual strips to 60 mM KCl and statistically processed.
(2) As to the antagonistic property of the peptides of the present invention to endothelin, the affinity for an endothelin receptor and the constrictor activity on porcine coronary smooth muscles (according to the method described in (1) described above) were assayed. The affinity for the receptor was assayed by the following method.

endothelin receptor = experiment: Assay of affinity for receptor (inhibition of 125I-ET-1 binding to porcine myocardial membrane fraction); details: for Receptor binding activity (specific activity): relative to ET-1 = 100
Procedure: Assay of Affinity for Receptor
A membrane fraction prepared from the porcine heart was diluted to 0.15 mg/ml by using a buffer solution for assay, and 100 μl of the resulting suspension of the membrane fraction was poured into each assay tube to use for assay. To this suspension of the membrane fraction was added 2 μl of 5 nM ^125 I labeled endothelin-1 solution. Further, 3 μl of a test peptide solution was added thereto, followed by incubation at a temperature of 25° C. for 1 hour. Then, the resulting suspension was diluted with 900 μl of the buffer solution for assay cooled with ice, and thereafter separated into a supernatant and a precipitate by centrifugation at 12,000×g for 10 minutes. Cell membranes and an endothelin receptor embedded therein were contained in the precipitate, and radioactive iodine-labeled endothelin combined with the receptor was also recovered in the precipitate. Accordingly, the amount of radioactive iodine-labeled endothelin combined with the endothelin receptor was determined by measuring the amount of radioactive iodine contained in the precipitate with a gamma-ray counter.

[1] = test system: porcine coronary smooth muscles
Procedure: (1) Assay of Constrictor Suppressing Activity on Porcine Coronary Smooth Muscles
as §1, §2
pA2 is a negative logarithm value of a molar concentration of a competitive antagonist necessary for shifting in parallel a dose response curve for an active drug (for example, ET-1) alone to the high dose side by a factor of 2.

[2] = against cumulative endothelin-1, porcine coronary smooth muscles

Row | Compound | Receptor binding activity (specific activity) (endothelin receptor) | Maximum constriction (% 60 mM KCl) (porcine coronary artery) | EC50 (porcine coronary artery; porcine coronary artery, read-out: EC50 (% KCl), concentration which induces 50% of the constriction of the porcine coronary artery due to 60 mM KCl) [nM] | Constrictor activity (specific activity) (porcine coronary artery; porcine coronary artery) | IC50 (endothelin receptor; read-out: IC50, concentration required to prevent 50% of the binding of I125-ET1 to the porcine myocardial membrane fraction) [nM] | pA2 [1, 2] | Relative potency [1] | pA2 [1]
1 | CC[C@H](C)[C@H](NC(=O)[C@H](CC(=O)O)NC(=O)[C@H](CC(C)C)NC(=O)[C@H](Cc1c[nH]cn1)NC(=O)[C@@H]1CSSC[C@H](N)C(=O)N[C@@H](CO)C(=O)N[C@H]2CSSC[C@H](NC(=O)[C@H](CCC(=O)O)NC(=O)[C@H](CCCCN)NC(=O)[C@H](CC(=O)O)NC(=O)[C@H](CCSC)NC(=O)[C@H](CC(C)C)NC(=O)[C@H](CO)NC(=O)[C@H](CO)NC2=O)C(=O)N[C@@H](C(C)C)C(=O)N[C@@H](Cc2ccc(O)cc2)C(=O)N[C@@H](Cc2ccccc2)C(=O)N1)C(=O)N[C@H](C(=O)N[C@@H](Cc1c[nH]c2ccccc12)C(=O)O)[C@@H](C)CC [ET-1, endothelin-1, reference compound] | […] | 120 | 1.6 | […] | […] | – | – | –
2 | CC[C@H](C)[C@H](NC(=O)[C@H](CC(C)C)NC(=O)[C@@H](NC(=O)[C@H](CC(C)C)NC(=O)[C@H](Cc1c[nH]cn1)NC(=O)[C@@H]1CSSC[C@H](N)C(=O)N[C@@H](CO)C(=O)N[C@H]2CSSC[C@H](NC(=O)[C@H](CCC(=O)O)NC(=O)[C@H](CCCCN)NC(=O)[C@H](CC(=O)O)NC(=O)[C@H](CCSC)NC(=O)[C@H](CC(C)C)NC(=O)[C@H](CO)NC(=O)[C@H](CO)NC2=O)C(=O)N[C@@H](C(C)C)C(=O)N[C@@H](Cc2ccc(O)cc2)C(=O)N[C@@H](Cc2ccccc2)C(=O)N1)[C@@H](C)O)C(=O)N[C@@H](Cc1c[nH]c2ccccc12)C(=O)O [Example 1, [Thr^18, Leu^19]-ET-1] (H-CSCSSLMDKECVYFCHLTLIW-OH; disulfide 1-15, 3-11) | 40 | 4 | – | < 0.1 | – | 7.7 | – | –
3 | CC[C@H](C)[C@H](NC(=O)[C@H](CC1CCCCC1)NC(=O)[C@@H](NC(=O)[C@H](CC(C)C)NC(=O)[C@H](Cc1c[nH]cn1)NC(=O)[C@@H]1CSSC[C@H](N)C(=O)N[C@@H](CO)C(=O)N[C@H]2CSSC[C@H](NC(=O)[C@H](CCC(=O)O)NC(=O)[C@H](CCCCN)NC(=O)[C@H](CC(=O)O)NC(=O)[C@H](CCSC)NC(=O)[C@H](CC(C)C)NC(=O)[C@H](CO)NC(=O)[C@H](CO)NC2=O)C(=O)N[C@@H](C(C)C)C(=O)N[C@@H](Cc2ccc(O)cc2)C(=O)N[C@@H](Cc2ccccc2)C(=O)N1)[C@@H](C)O)C(=O)N[C@@H](Cc1c[nH]c2ccccc12)C(=O)O [Example 2, [Thr^18, Cha^19]-ET-1] (H-CSCSSLMDKECVYFCHLT[Cha]IW-OH; disulfide 1-15, 3-11) | 23 | 2 | – | < 0.1 | – | 7.7 | – | –
4 | CC[C@H](C)[C@H](NC(=O)[C@H](Cc1ccccc1)NC(=O)[C@@H](NC(=O)[C@H](CC(C)C)NC(=O)[C@H](Cc1c[nH]cn1)NC(=O)[C@@H]1CSSC[C@H](N)C(=O)N[C@@H](CO)C(=O)N[C@H]2CSSC[C@H](NC(=O)[C@H](CCC(=O)O)NC(=O)[C@H](CCCCN)NC(=O)[C@H](CC(=O)O)NC(=O)[C@H](CCSC)NC(=O)[C@H](CC(C)C)NC(=O)[C@H](CO)NC(=O)[C@H](CO)NC2=O)C(=O)N[C@@H](C(C)C)C(=O)N[C@@H](Cc2ccc(O)cc2)C(=O)N[C@@H](Cc2ccccc2)C(=O)N1)[C@@H](C)O)C(=O)N[C@@H](Cc1c[nH]c2ccccc12)C(=O)O [Example 3, [Thr^18, Phe^19]-ET-1] (H-CSCSSLMDKECVYFCHLTFIW-OH; disulfide 1-15, 3-11) | 9.0 | 4 | – | < 0.1 | – | – | 32 | 7.2
5 | CC[C@H](C)[C@H](NC(=O)[C@H](CC(C)(C)C)NC(=O)[C@@H](NC(=O)[C@H](CC(C)C)NC(=O)[C@H](Cc1c[nH]cn1)NC(=O)[C@@H]1CSSC[C@H](N)C(=O)N[C@@H](CO)C(=O)N[C@H]2CSSC[C@H](NC(=O)[C@H](CCC(=O)O)NC(=O)[C@H](CCCCN)NC(=O)[C@H](CC(=O)O)NC(=O)[C@H](CCSC)NC(=O)[C@H](CC(C)C)NC(=O)[C@H](CO)NC(=O)[C@H](CO)NC2=O)C(=O)N[C@@H](C(C)C)C(=O)N[C@@H](Cc2ccc(O)cc2)C(=O)N[C@@H](Cc2ccccc2)C(=O)N1)[C@@H](C)O)C(=O)N[C@@H](Cc1c[nH]c2ccccc12)C(=O)O [Example 4, [Thr^18, γLeu^19]-ET-1] (H-CSCSSLMDKECVYFCHLT[tBuAla]IW-OH; disulfide 1-15, 3-11) | 23 | 0 | – | < 0.1 | – | 7.4 | – | –
6 | CC[C@H](C)[C@H](NC(=O)[C@H](CC(N)=O)NC(=O)[C@@H](NC(=O)[C@H](CC(C)C)NC(=O)[C@H](Cc1c[nH]cn1)NC(=O)[C@@H]1CSSC[C@H](N)C(=O)N[C@@H](CO)C(=O)N[C@H]2CSSC[C@H](NC(=O)[C@H](CCC(=O)O)NC(=O)[C@H](CCCCN)NC(=O)[C@H](CC(=O)O)NC(=O)[C@H](CCSC)NC(=O)[C@H](CC(C)C)NC(=O)[C@H](CO)NC(=O)[C@H](CO)NC2=O)C(=O)N[C@@H](C(C)C)C(=O)N[C@@H](Cc2ccc(O)cc2)C(=O)N[C@@H](Cc2ccccc2)C(=O)N1)[C@@H](C)O)C(=O)N[C@@H](Cc1c[nH]c2ccccc12)C(=O)O [Example 5, [Thr^18, Asn^19]-ET-1] (H-CSCSSLMDKECVYFCHLTNIW-OH; disulfide 1-15, 3-11) | 1.6 | 9 | – | < 0.1 | – | – | – | –

Continued, in another order:

Row | Receptor binding activity (specific activity) (endothelin receptor) | Compound | Maximum constriction (% 60 mM KCl) (porcine coronary artery) | EC50 (porcine coronary artery; porcine coronary artery, read-out: EC50 (% KCl), concentration which induces 50% of the constriction of the porcine coronary artery due to 60 mM KCl) [nM] | Constrictor activity (specific activity) (porcine coronary artery; porcine coronary artery) | IC50 (endothelin receptor; read-out: IC50, concentration required to prevent 50% of the binding of I125-ET1 to the porcine myocardial membrane fraction) [nM] | pA2 [1, 2] | Relative potency [1] | pA2 [1]
7 | 12 | CC[C@H](C)[C@H](NC(=O)[C@H](CC(C)C)NC(=O)[C@H](CC(N)=O)NC(=O)[C@H](CC(C)C)NC(=O)[C@H](Cc1c[nH]cn1)NC(=O)[C@@H]1CSSC[C@H](N)C(=O)N[C@@H](CO)C(=O)N[C@H]2CSSC[C@H](NC(=O)[C@H](CCC(=O)O)NC(=O)[C@H](CCCCN)NC(=O)[C@H](CC(=O)O)NC(=O)[C@H](CCSC)NC(=O)[C@H](CC(C)C)NC(=O)[C@H](CO)NC(=O)[C@H](CO)NC2=O)C(=O)N[C@@H](C(C)C)C(=O)N[C@@H](Cc2ccc(O)cc2)C(=O)N[C@@H](Cc2ccccc2)C(=O)N1)C(=O)N[C@@H](Cc1c[nH]c2ccccc12)C(=O)O [Example 7, [Asn^18, Leu^19]-ET-1] (H-CSCSSLMDKECVYFCHLNLIW-OH; disulfide 1-15, 3-11) | 4 | – | < 0.1 | – | – | – | –
8 | 4.0 | CC[C@H](C)[C@H](NC(=O)[C@H](CC(C)C)NC(=O)[C@@H](NC(=O)[C@H](CC(C)C)NC(=O)[C@H](Cc1c[nH]cn1)NC(=O)[C@@H]1CSSC[C@H](N)C(=O)N[C@@H]([C@@H](C)O)C(=O)N[C@H]2CSSC[C@H](NC(=O)[C@H](CCC(=O)O)NC(=O)[C@H](CCCCN)NC(=O)[C@H](CC(=O)O)NC(=O)[C@H](CCCCN)NC(=O)[C@H](Cc3ccc(O)cc3)NC(=O)[C@H]([C@@H](C)O)NC(=O)[C@H](Cc3ccccc3)NC2=O)C(=O)N[C@@H](C(C)C)C(=O)N[C@@H](Cc2ccc(O)cc2)C(=O)N[C@@H](Cc2ccc(O)cc2)C(=O)N1)[C@@H](C)O)C(=O)N[C@@H](Cc1c[nH]c2ccccc12)C(=O)O [Example 9, [Thr^18, Leu^19]-ET-3] (H-CTCFTYKDKECVYYCHLTLIW-OH; disulfide 1-15, 3-11) | 12 | – | < 0.1 | – | – | – | –
9 | 27 | CCCC[C@@H]1NC(=O)[C@H](CC(C)C)NC(=O)[C@H](CO)NC(=O)[C@H](CO)NC(=O)[C@@H]2CSSC[C@H](NC(=O)[C@H](CCC(=O)O)NC(=O)[C@H](CCCCN)NC(=O)[C@H](CC(=O)O)NC1=O)C(=O)N[C@@H](C(C)C)C(=O)N[C@@H](Cc1ccc(O)cc1)C(=O)N[C@@H](Cc1ccccc1)C(=O)N[C@H](C(=O)N[C@@H](Cc1c[nH]cn1)C(=O)N[C@@H](CC(C)C)C(=O)N[C@H](C(=O)N[C@@H](CC(C)C)C(=O)N[C@H](C(=O)N[C@@H](Cc1c[nH]c3ccccc13)C(=O)O)[C@@H](C)CC)[C@@H](C)O)CSSC[C@H](N)C(=O)N[C@@H](CO)C(=O)N2 [Example 17, [Nle^7, Thr^18, Leu^19]-ET-1] (H-CSCSSL[Nle]DKECVYFCHLTLIW-OH; disulfide 1-15, 3-11) | 9 | – | < 0.1 | – | – | – | –
